Assay results: PMC7418559, “Synthesis and SAR of Tetracyclic Inhibitors of Protein Kinase CK2 Derived from Furocarbazole W16” (Chemmedchem, 2020)
Like-named read-outs stand apart in the source and are kept apart here.

Experiments:
[1] = target: T1, mutated CK2α’ ^C336S subunit (Homo sapiens, UniProt P19784, C336S); experiment: Capillary electrophoresis (CE) assay, enzyme inhibition of the mutated CK2α′ C336S subunit; assay type: biochemical; details: for Inhibition (%) of CK2α’ ^C336S: c=10 μM, CE assay, mean±SD of three experiments, n.s.=not significant; for inhibition at 10 µM: read-out: Inhibition (%) of CK2α’ ^C336S
T1 construct: His6 (N); made in house
T1 sequence (P19784 1-350 C336S): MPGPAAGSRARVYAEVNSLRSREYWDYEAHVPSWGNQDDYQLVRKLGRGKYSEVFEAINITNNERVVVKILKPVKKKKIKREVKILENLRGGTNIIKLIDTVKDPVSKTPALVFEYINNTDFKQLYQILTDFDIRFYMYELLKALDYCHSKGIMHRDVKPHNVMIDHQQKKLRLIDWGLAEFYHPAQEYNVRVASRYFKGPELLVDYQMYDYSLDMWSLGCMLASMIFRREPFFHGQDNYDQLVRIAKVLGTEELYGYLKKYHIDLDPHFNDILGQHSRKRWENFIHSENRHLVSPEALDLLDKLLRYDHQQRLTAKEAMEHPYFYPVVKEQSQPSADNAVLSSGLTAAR
Excerpt: (§1) In this assay, the decapeptide […], a known class I substrate suitable for assaying the kinase activity of both the CK2 holoenzyme and the catalytically active CK2 subunits,50, 58 was reacted with ATP in the presence of enzyme, which transfers a phosphate group to Ser7 of the decapeptide. Due to the additional negative charge of the phosphate group, the decapeptide and the phosphorylated decapeptide can be separated by CE. […] The data on the inhibition of the kinase activities of CK2α2β2, CK2α subunit and mutated CK2α’ ^C336S subunit are summarized in Table 1.
(§2) Enzymatic activities with or without inhibitors were determined for the holoenzyme (CK2α2β2), the CK2α subunit, and the mutated CK2α′ ^C336S subunit by a capillary electrophoresis assay as described before.59 For this purpose, CK2α as well as (CK2α2β2) holoenzyme were purified after recombinant expression in E. coli BL21(DE3) and purified according the protocol of Grankowski et al.62 The mutated CK2α′ ^C336S subunit was purified by Ni‐NTA affinity chromatography using an N‐terminally attached His6 tag. Successful purification was controlled by SDS‐PAGE. Enzymatic activity was determined in the presence of 60 μM ATP and 114 μM of the substrate peptide […]. For both CK2α subunits an assay buffer containing 100 mM NaCl instead of 60 mM NaCl as for the holoenzyme, and 20 mM MgCl2 instead of 10 mM MgCl2 was applied. For the holoenzyme, 1 μg was added, whereas for CK2α and the mutated CK2α′ ^C336S subunit 0.25 μg was added each. For each compound inhibition was determined three times independently at an initial concentration of 10 μM and the mean value and the standard deviation (SD) were calculated.

CK2α subunit = target: T2, CK2α subunit (Homo sapiens, UniProt P68400); experiment: Capillary electrophoresis (CE) assay, enzyme inhibition of the CK2α subunit; assay type: biochemical; details: for Inhibition (%) of CK2α: c=10 μM, CE assay, mean±SD of three experiments, n.s.=not significant; for inhibition at 10 µM: read-out: Inhibition (%) of CK2α
T2 construct: made in house; host or cells: E. coli BL21(DE3)
T2 sequence (P68400 whole entry): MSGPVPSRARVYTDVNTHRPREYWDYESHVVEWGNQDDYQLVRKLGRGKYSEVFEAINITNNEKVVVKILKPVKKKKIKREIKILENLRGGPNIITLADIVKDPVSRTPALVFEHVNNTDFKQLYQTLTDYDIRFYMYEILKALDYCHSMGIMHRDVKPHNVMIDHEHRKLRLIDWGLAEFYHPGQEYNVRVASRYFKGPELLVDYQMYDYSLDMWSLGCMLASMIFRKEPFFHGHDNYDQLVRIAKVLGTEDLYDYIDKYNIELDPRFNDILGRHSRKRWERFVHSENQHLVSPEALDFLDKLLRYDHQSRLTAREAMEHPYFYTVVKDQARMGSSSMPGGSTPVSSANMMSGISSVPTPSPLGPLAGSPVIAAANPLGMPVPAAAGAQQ
Excerpt: as §1, §2

holoenzyme CK2α2β2 = target: T3, holoenzyme CK2α2β2 (Homo sapiens, UniProt P68400); experiment: Capillary electrophoresis (CE) assay, enzyme inhibition of the holoenzyme; assay type: biochemical; details: for inhibition at 10 µM: read-out: Inhibition (%) of CK2α2β2
T3 construct: made in house; host or cells: E. coli BL21(DE3)
T3 sequence (P68400 whole entry): as above
Procedure: In this assay, the decapeptide […], a known class I substrate suitable for assaying the kinase activity of both the CK2 holoenzyme and the catalytically active CK2 subunits,50, 58 was reacted with ATP in the presence of enzyme, which transfers a phosphate group to Ser7 of the decapeptide. Due to the additional negative charge of the phosphate group, the decapeptide and the phosphorylated decapeptide can be separated by CE.
Enzymatic activities with or without inhibitors were determined for the holoenzyme (CK2α2β2), the CK2α subunit, and the mutated CK2α′ ^C336S subunit by a capillary electrophoresis assay as described before.59 For this purpose, CK2α as well as (CK2α2β2) holoenzyme were purified after recombinant expression in E. coli BL21(DE3) and purified according the protocol of Grankowski et al.62 The mutated CK2α′ ^C336S subunit was purified by Ni‐NTA affinity chromatography using an N‐terminally attached His6 tag. […] For both CK2α subunits an assay buffer containing 100 mM NaCl instead of 60 mM NaCl as for the holoenzyme, and 20 mM MgCl2 instead of 10 mM MgCl2 was applied. For the holoenzyme, 1 μg was added, whereas for CK2α and the mutated CK2α′ ^C336S subunit 0.25 μg was added each. For each compound inhibition was determined three times independently at an initial concentration of 10 μM and the mean value and the standard deviation (SD) were calculated.

[2] = target: T4, CK2α/CK2β interaction (CK2α^1−335 / fluorescently labeled CK2β^1−193) (Homo sapiens, UniProt P68400); details: for Inhibition of CK2α/CK2β2 interaction K i: MST, global fit with K D = […] nM, mean±SEM of 2–4 experiments, prec.=precipitation, n.s.=not significant
T4 sequence (P68400 1-335): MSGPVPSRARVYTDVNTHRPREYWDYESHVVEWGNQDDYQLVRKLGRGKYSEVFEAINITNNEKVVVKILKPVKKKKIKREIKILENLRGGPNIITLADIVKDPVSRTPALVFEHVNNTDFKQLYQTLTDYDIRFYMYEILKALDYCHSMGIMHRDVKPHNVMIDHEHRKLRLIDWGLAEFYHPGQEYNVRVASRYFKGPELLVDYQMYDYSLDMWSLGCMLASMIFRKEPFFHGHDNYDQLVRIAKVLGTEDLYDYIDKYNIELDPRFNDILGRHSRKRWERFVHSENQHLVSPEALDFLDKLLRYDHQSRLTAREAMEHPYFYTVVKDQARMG
Procedure: The inhibition of the interaction between the CK2α and the CK2β subunit was determined in a microscale thermophoresis (MST) assay.
To quantify the protein‐protein interaction in the presence of potential inhibitors, the investigated compounds were first dissolved in DMSO (2‐10 mM) and then 50‐fold diluted in ITC buffer (25 mM Tris‐HCl, 500 mM NaCl, pH 8.5) containing 0.1 % (v/v) Tween 20 to concentrations of either 40, 100 or 200 μM in 2 % (v/v) DMSO, i. e. twice the final concentrations: 20, 50 and 100 μM, respectively, in 1 % (v/v) DMSO, 0.05 % (v/v) Tween 20. […] MST traces were recorded at room temperature using a Nanotemper Monolith™ NT.115 Series Instrument with Monolith™ NT.115 standard treated capillaries and normalized to initial fluorescence (MO.Affinity Analysis, Nanotemper). […] Next, the statistical significance of the shift from K D to K D’ was determined for each compound by means of an unpaired Student's t test (Table S4). […] Data was analyzed and statistically evaluated with the program GraphPad Prism v.5.04 for Windows (GraphPad Software, San Diego, CA, USA).
a Shown are mean  SEM values of KD and KD’ for n separate experiments.
significant (n. s.), P > 0.05; *, P ≤ 0.05; **, P ≤ 0.01; ***, P ≤ 0.001; ****, P ≤ 0.0001. prec.

[3] = c=10 μM, CE assay, mean±SD of three experiments, n.s.=not significant

SMILES	Inhibition (%) of CK2α’ ^C336S [1]	Inhibition (%) of CK2α (CK2α subunit)	inhibition at 10 µM (holoenzyme CK2α2β2; [3]) [%]	Inhibition of CK2α/CK2β2 interaction K i [2]	Ki [2] [µM]	other results
COc1cc([C@H]2c3c([nH]c4ccccc34)[C@@H](C(=O)N3C(=O)OC[C@@H]3Cc3ccccc3)[C@H]3C(=O)NC(=O)[C@@H]23)cc(OC)c1OC [(+)‐9 a]	n.s.	n.s.	20 ± 4	n.s.	–	–
COc1cc([C@@H]2c3c([nH]c4ccccc34)[C@H](C(=O)N3C(=O)OC[C@@H]3Cc3ccccc3)[C@@H]3C(=O)NC(=O)[C@H]23)cc(OC)c1OC [(−)‐9 b]	n.s.	n.s.	–	–	4.4 ± 0.3	Inhibition (%) of CK2α2β2 (holoenzyme CK2α2β2; [3]): n.s.
COc1cc([C@@H]2c3c([nH]c4ccccc34)[C@H](C(=O)N3C(=O)OC[C@H]3Cc3ccccc3)[C@@H]3C(=O)NC(=O)[C@H]23)cc(OC)c1OC [(−)‐9 a]	n.s.	n.s.	–	–	3.6 ± 0.6	Inhibition (%) of CK2α2β2 (holoenzyme CK2α2β2; [3]): n.s.
COc1cc([C@H]2c3c([nH]c4ccccc34)[C@H](C(=O)N3C(=O)OC[C@@H]3Cc3ccccc3)[C@H]3C(=O)NC(=O)[C@@H]23)cc(OC)c1OC [(+)‐9 c]	–	–	< 50	prec.	–	–
COc1cc([C@H]2c3c([nH]c4ccccc34)[C@@H](C(=O)N3C(=O)OC[C@H]3Cc3ccccc3)[C@H]3C(=O)N(C)C(=O)[C@@H]23)cc(OC)c1OC [(+)‐10 b, (3aS,4S,10S,10aS)‐4‐{[(R)‐4‐Benzyl‐2‐oxo‐1,3‐oxazolidin‐3‐yl]carbonyl}‐2‐methyl‐10‐(3,4,5‐trimethoxyphenyl)‐4,5,10,10a‐tetrahydropyrrolo[3,4‐b]carbazole‐1,3(2H,3aH)‐dione]	n.s.	n.s.	31 ± 9	–	7.2 ± 1.5	–
COc1cc([C@@H]2c3c([nH]c4ccccc34)[C@@H](C(=O)O)[C@@H]3C(=O)NC(=O)[C@H]23)cc(OC)c1OC (racemic) [(±)‐12]	n.s.	n.s.	–	–	1.8 ± 0.8	Inhibition (%) of CK2α2β2 (holoenzyme CK2α2β2; [3]): n.s.
COc1cc([C@H]2c3c([nH]c4ccccc34)[C@@H](C(=O)N3C(=O)OC[C@H]3Cc3ccccc3)[C@H]3C(=O)NC(=O)[C@@H]23)cc(OC)c1OC [(+)‐9 b, (3aS,4S,10S,10aS)‐4‐{[(R)‐4‐Benzyl‐2‐oxo‐1,3‐oxazolidin‐3‐yl]carbonyl}‐10‐(3,4,5‐trimethoxyphenyl)‐4,5,10,10a‐tetrahydropyrrolo[3,4‐b]carbazole‐1,3(2H,3aH)‐dione]	n.s.	n.s.	12 ± 7	–	4.9 ± 0.8	–
CCOC(=O)C1c2[nH]c3ccccc3c2C(c2cc(OC)c(OC)c(OC)c2)C2C(=O)NC(=O)C12 (racemic) [(±)‐11]	n.s.	n.s.	–	–	32 ± 17	Inhibition (%) of CK2α2β2 (holoenzyme CK2α2β2; [3]): n.s.
COc1cc([C@@H]2c3c([nH]c4ccccc34)[C@H](C(=O)N3C(=O)OC[C@@H]3Cc3ccccc3)[C@@H]3C(=O)N(C)C(=O)[C@H]23)cc(OC)c1OC [(−)‐10 b]	n.s.	n.s.	15 ± 11	–	3.7 ± 0.7	–
COc1cc([C@@H]2c3c([nH]c4ccccc34)[C@H](C(=O)N3C(=O)OC[C@H]3Cc3ccccc3)[C@@H]3C(=O)OC(=O)[C@H]23)cc(OC)c1OC [(−)‐3 a]	–	–	–	–	–	inhibition at 10 µM [1]: 93 ± 2%; inhibition at 10 µM (CK2α subunit): 73 ± 4%; inhibition at 10 µM (holoenzyme CK2α2β2): 89 ± 3%
COc1cc([C@H]2c3c([nH]c4ccccc34)[C@H](C(=O)N3C(=O)OC[C@H]3Cc3ccccc3)[C@H]3C(=O)NC(=O)[C@@H]23)cc(OC)c1OC [(+)‐9 d]	–	–	< 50	n.s.	–	–
COc1cc([C@@H]2c3c([nH]c4ccccc34)[C@@H](C(=O)N3C(=O)OC[C@H]3Cc3ccccc3)[C@@H]3C(=O)NC(=O)[C@H]23)cc(OC)c1OC [(‐)‐9 c]	–	–	< 50	prec.	–	–
COc1cc([C@H]2c3c([nH]c4ccccc34)[C@H](C(=O)N[C@H](CO)Cc3ccccc3)[C@H]3C(=O)NC(=O)[C@@H]23)cc(OC)c1OC [(+)‐14 c]	–	–	< 50	n.s.	–	–
COc1cc([C@@H]2c3c([nH]c4ccccc34)[C@@H](C(=O)N[C@H](CO)Cc3ccccc3)[C@@H]3C(=O)NC(=O)[C@H]23)cc(OC)c1OC [(−)‐14 d]	–	–	< 50	n.s.	–	–
COc1cc([C@@H]2c3c([nH]c4ccccc34)[C@@H](C(=O)N3C(=O)OC[C@@H]3Cc3ccccc3)[C@@H]3C(=O)NC(=O)[C@H]23)cc(OC)c1OC [(−)‐9 d]	–	–	< 50	n.s.	–	–
COc1cc([C@H]2c3c([nH]c4ccccc34)[C@H](C(=O)N[C@@H](CO)Cc3ccccc3)[C@H]3C(=O)NC(=O)[C@@H]23)cc(OC)c1OC [(+)‐14 d]	–	–	< 50	n.s.	–	–
COc1cc([C@H]2c3c([nH]c4ccccc34)[C@H](C(=O)N3C(=O)OC[C@@H]3Cc3ccccc3)[C@H]3C(=O)OC(=O)[C@@H]23)cc(OC)c1OC [(+)‐3 c, (3aR,4R,10S,10aS)‐4‐{[(S)‐4‐Benzyl‐2‐oxo‐1,3‐oxazolidin‐3‐yl]carbonyl}‐10‐(3,4,5‐trimethoxyphenyl)‐4,5,10,10a‐tetrahydrofuro[3,4‐b]carbazole‐1,3(3aH)‐dione]	–	–	–	–	–	inhibition at 10 µM [1]: 52 ± 38%; inhibition at 10 µM (CK2α subunit): 65 ± 4%; inhibition at 10 µM (holoenzyme CK2α2β2): 66 ± 16%
COc1cc([C@@H]2c3c([nH]c4ccccc34)[C@@H](C(=O)N3C(=O)OC[C@@H]3Cc3ccccc3)[C@@H]3C(=O)OC(=O)[C@H]23)cc(OC)c1OC [(+)‐3 d, (3aS,4S,10R,10aR)‐4‐{[(S)‐4‐Benzyl‐2‐oxo‐1,3‐oxazolidin‐3‐yl]carbonyl}‐10‐(3,4,5‐trimethoxyphenyl)‐4,5,10,10a‐tetrahydrofuro[3,4‐b]carbazole‐1,3(3aH)‐dione]	n.s.	–	–	–	–	inhibition at 10 µM (CK2α subunit): 43 ± 13%; inhibition at 10 µM (holoenzyme CK2α2β2): 92 ± 7%
